Measured values published in patent US7393818B2 (priority 2003, dated 2008).

Legend:
prions = details: reported in literature; cited from earlier work
[1] = target: Scrapie (sheep) prion protein (Ovis aries, UniProt P23907)
Sequence of Scrapie (sheep) prion protein (P23907 25-233 limits assumed): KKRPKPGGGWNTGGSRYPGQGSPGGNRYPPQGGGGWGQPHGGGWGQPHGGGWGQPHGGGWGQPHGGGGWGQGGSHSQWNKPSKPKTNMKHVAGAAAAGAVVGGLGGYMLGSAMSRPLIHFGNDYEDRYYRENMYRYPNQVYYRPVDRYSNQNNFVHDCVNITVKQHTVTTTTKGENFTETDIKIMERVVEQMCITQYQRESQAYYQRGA

SMILES	effectiveness against prions (prions)	effect on the percentage of samples showing presence of prion ([1]; in the period of the test (one hour soak))	Percentage of Samples Tested where Prion (Scrapie) is Detected ([1]; wires soaked for one hour)
O=CCCCC=O [Glutaraldehyde]	ineffective	–	–
OO [7% Hydrogen Peroxide, hydrogen peroxide]	–	no effect	100%
OO [hydrogen peroxide]	ineffective	–	–
C1CO1 [ethylene oxide]	ineffective	–	–
